# Results published in patent US10882869B2, “Condensed heterocyclic compounds and pesticides” (NISSAN CHEMICAL CORPORATION, priority 2015, dated 2021).
# Key:
# Format in all cases: in vivo
# Plutella xylostella [1] = test: Insecticidal test on Plutella xylostella (cabbage leaves soaked); settings: 144 h, 500 ppm solution, 3rd-instar larvae, 6 days after, 25° C.
# Description: (§1) Leaves of cabbage were soaked in the solutions for about 10 seconds. After the soaking, the leaves were dried in air and placed in dishes. In each dish, five 3rd-instar larvae of Plutella xylostella were released, and the dishes were covered with lids and placed in an incubator at 25° C. 6 Days after, dead insects in the dishes were counted, and the mortality was calculated by using the same equation as in Test Example 1. The test was carried out in duplicate.
# Ctenocephalides felis = test: Test on the effect on Ctenocephalides felis (thin film in glass container); settings: 96 h, application dose 10 μg/cm^2, adults, 4 days after release, 25° C.
# Description: (§2) 350 μl of the solutions were applied to the bottoms and the side walls of glass containers with an inner wall surface area of 35 cm^2, and acetone was volatilized to prepare thin films of the compounds on the inner walls of the glass containers. Since the inner wall surface area of each glass container was 35 cm^2, the application dose was 10 μg/cm^2.
# (§3) To each glass container, five adults (male and female) of Ctenocephalides felis were released, and the containers were covered with lids and placed in an incubator at 25° C. 4 Days after the release of the fleas, dead fleas were counted, and the mortality was calculated by using the same equation as in Test Example 1.
# Spodoptera litura = test: Insecticidal test on Spodoptera litura (cabbage leaves soaked); settings: 144 h, 500 ppm solution, 3rd-instar larvae, 6 days after, 25° C.
# Description: as §1, with “Spodoptera litura” for “Plutella xylostella”
# Rhipicephalus sanguineus = test: Test on the effect on Rhipicephalus sanguineus (thin film in glass container); settings: 96 h, application dose 10 μg/cm^2, protonymphs, 4 days after release, 25° C.
# Description: as §2
# as §3, with “protonymphs” for “adults”, “Rhipiceohalus sanguineus” for “Ctenocephalides felis”, “ticks,” for “fleas,”, “ticks” for “fleas”
# Plutella xylostella [2] = test: Soil irrigation test on Plutella xylostella; settings: 144 h, 500 ppm solution, 10 ml soil irrigation of cabbage seedlings, leaves picked 5 days after, 3rd-instar larvae, 6 days after
# Description: The soil around the bases of cabbage seedlings (at the 2.5-leaf stage) planted in plastic cups was irrigated with 10 ml of the solutions. After the irrigation, the cabbage seedlings were placed in a greenhouse. 5 Days after the irrigation, leaves of cabbage were picked and placed in dishes. In each dish, five 3rd-instar larvae of Plutella xylostella were released, and the dishes were covered with lids and placed in an incubator at 25° C. 6 Days after, dead insects in the dishes were counted, and the mortality was calculated by using the same equation as in Test Example 1. The test was carried out in duplicate.
# Myzus persicae = test: Insecticidal test on Myzus persicae (cabbage leaf spray); settings: 144 h, 500 ppm solution sprayed (2.5 mg/cm^2), apterous adults on cabbage leaves, 6 days after, 25° C.
# Description: Wet absorbent cotton was laid on glass dishes having an inner diameter of 3 cm, and covered with leaves of cabbage cut into circles of the same diameter, and 4 apterous adults of Myzus persicae were released. […] The solutions were sprayed from a rotary spray tower (2.5 mg/cm^2), and the dishes were covered with lids and placed in an incubator at 25° C. 6 Days after, dead insects were counted, and the mortality was calculated by using the same equation as in Test Example 1. The test was carried out in duplicate.
# [3] = system: Frankliniella occidentalis; test: Insecticidal activity on Frankliniella occidentalis (kidney bean leaf spray); settings: 48 h, 500 ppm solution sprayed (2.5 mg/cm^2), larvae on kidney bean leaves, 2 days after
# Description: In styrol cups having an inner diameter of 7 cm, wet filter paper was laid, kidney bean leaves cut into a 3 cm square were laid on the paper, and each leaf was inoculated with 20 larvae of Frankliniella occidentalis. […] 2.5 ml of the solutions were sprayed from a rotary spray tower into the styrol cups (2.5 mg/cm^2).
# 2 Days after, dead insects were counted, and insect damage on kidney bean leaves was examined. The mortality was calculated by using the same equation as in Test Example 1.
# The insect damage degree was evaluated as follows. 1: 0 to 20% insect damage, 2: 20 to 50% insect damage, 3: 50 to 70% insect damage, and 4: 70% or higher insect damge. The test was carried out in duplicate.
# Nilaparvata lugens [4] = test: Systemic insecticidal test on Nilaparvata lugens (rice seedling root dip); settings: 20 ppm solution, rice seedling roots dipped 7 days, 3rd-instar larvae, 6 days after release, 25° C.
# Description: 7 Days after, the rice seedlings were picked and put in test tubes, and in each tube, five 3rd-instar larvae of Nilaparvata lugens were released, and the tubes were capped with sponge and placed in an incubator at 25° C. 6 Days after the release of the insects, dead insects were counted, and the mortality (%) (the number of dead insects÷the number of released insects×100) was calculated. The test was carried out in duplicate.
# Nilaparvata lugens [5] = test: Insecticidal test on Nilaparvata lugens (rice sheaths soaked); settings: 144 h, 500 ppm solution, 3rd-instar larvae, 6 days after, 25° C.
# Description: Rice sheaths were soaked in the solutions for about 10 seconds. After the soaking, the rice sheaths were dried in air and put in test tubes. In each tube, five 3rd-instar larvae of Nilaparvata lugens were released, and the tubes were capped with sponge and placed in an incubator at 25° C. 6 Days after, dead insects in the test tubes were counted, and the mortality (%) (the number of dead insects÷the number of released insects×100) was calculated. The test was carried out in duplicate.
compound,measurement,setting,value
"CCSc1c(-c2nc3cc(SC(F)(F)F)cnc3n2C)nc2cc(C(F)(F)F)ccn12 [1-1-027b, 2-[3-(ethylthio)-7-(trifluoromethyl)imidazo[1,2-a]pyridin-2-yl]-3-methyl-6-((trifluoromethyl)thio)-3H-imidazo[4,5-b]pyridine]",mortality at 500 ppm,Plutella xylostella [1],≥ 90%
same,mortality at 10 µg/cm2,Ctenocephalides felis,≥ 50%
same,mortality at 500 ppm,Spodoptera litura,≥ 90%
same,mortality at 10 µg/cm2,Rhipicephalus sanguineus,≥ 50%
"CCS(=O)(=O)c1c(-c2nc3cc(C(F)(F)F)cnc3n2C)nc2cnc(C(F)(F)F)cn12 [1-1-029a, 2-[3-(ethylsulfonyl)-6-(trifluoromethyl)imidazo[1,2-a]pyrazin-2-yl]-3-methyl-6-(trifluoromethyl)-3H-imidazo[4,5-b]pyridine]",mortality at 500 ppm,Plutella xylostella [1],≥ 90%
same,mortality at 10 µg/cm2,Ctenocephalides felis,≥ 50%
same,pest or weed control at 500 ppm,Plutella xylostella [2],≥ 90%
same,mortality at 500 ppm,Spodoptera litura,≥ 90%
"CCSc1c(-c2nc3cc(C(F)(F)F)ncc3n2C)nc2cc(Cl)ccn12 [1-8-006b, 2-[7-chloro-3-(ethylthio)imidazo[1,2-a]pyridin-2-yl]-3-methyl-6-(trifluoromethyl)-3H-imidazo[4,5-c]pyridine]",mortality at 500 ppm,Plutella xylostella [1],≥ 90%
same,mortality at 10 µg/cm2,Ctenocephalides felis,≥ 50%
same,mortality at 500 ppm,Spodoptera litura,≥ 90%
same,mortality at 10 µg/cm2,Rhipicephalus sanguineus,≥ 50%
"CCS(=O)(=O)c1c(-c2nc3cc(C(F)(F)F)cnc3n2C)n(C)c2ccc(C(F)(F)F)cc12 [3-1-001a, 2-[3-(ethylsulfonyl)-1-methyl-5-(trifluoromethyl)-1H-indol-2-yl]-3-methyl-6-(trifluoromethyl)-3H-imidazo[4,5-b]pyridine]",mortality at 500 ppm,Plutella xylostella [1],≥ 90%
same,mortality at 10 µg/cm2,Ctenocephalides felis,≥ 50%
same,mortality at 500 ppm,Spodoptera litura,≥ 90%
same,mortality at 500 ppm,Myzus persicae,≥ 90%
same,mortality at 500 ppm,[3],≥ 50%
"CCS(=O)(=O)c1c(-n2cc3cnc(C(F)(F)F)cc3n2)nc2cc(C(F)(F)F)ccn12 [1-11-001a, 2-[3-(ethylsulfonyl)-7-(trifluoromethyl)imidazo[1,2-a]pyridin-2-yl]-6-(trifluoromethyl)-2H-pyrazolo[4,3-c]pyridine]",mortality at 20 ppm,Nilaparvata lugens [4],≥ 90%
same,mortality at 500 ppm,Plutella xylostella [1],≥ 90%
same,mortality at 500 ppm,Nilaparvata lugens [5],≥ 90%
same,mortality at 10 µg/cm2,Ctenocephalides felis,≥ 50%
same,pest or weed control at 500 ppm,Plutella xylostella [2],≥ 90%
same,mortality at 500 ppm,Spodoptera litura,≥ 90%
same,mortality at 500 ppm,Myzus persicae,≥ 90%
"CCSc1c(-c2nc3cc(C(F)(F)F)cnc3n2C)n(C)c2ccc(C(F)(F)F)cc12 [3-1-001b, 2-[3-(ethylthio)-1-methyl-5-(trifluoromethyl)-1H-indol-2-yl]-3-methyl-6-(trifluoromethyl)-3H-imidazo[4,5-b]pyridine]",mortality at 500 ppm,Plutella xylostella [1],≥ 90%
same,mortality at 10 µg/cm2,Ctenocephalides felis,≥ 50%
same,mortality at 500 ppm,[3],≥ 50%
"CCSc1c(-c2nc3cc(C(F)(F)F)cnc3n2C)nc2ncc(C(F)(F)F)cn12 [1-1-054b, 2-[3-(ethylthio)-6-(trifluoromethyl)imidazo[1,2-a]pyrimidin-2-yl]-3-methyl-6-(trifluoromethyl)-3H-imidazo[4,5-b]pyridine]",mortality at 10 µg/cm2,Ctenocephalides felis,≥ 50%
same,mortality at 500 ppm,[3],≥ 50%
"CCS(=O)(=O)c1c(-c2cn3ncc(C(F)(F)F)cc3n2)nc2cc(C(F)(F)F)ccn12 [1-4-001a, 2-[3-(ethylsulfonyl)-7-(trifluoromethyl)imidazo[1,2-a]pyridin-2-yl]-7-(trifluoromethyl)imidazo[1,2-b]pyridazine]",mortality at 500 ppm,Plutella xylostella [1],≥ 90%
same,mortality at 10 µg/cm2,Ctenocephalides felis,≥ 50%
same,pest or weed control at 500 ppm,Plutella xylostella [2],≥ 90%
same,mortality at 500 ppm,Spodoptera litura,≥ 90%
same,mortality at 500 ppm,Myzus persicae,≥ 90%
"CCS(=O)(=O)c1c(-n2cc3ncc(C(F)(F)F)cc3n2)nc2cc(C(F)(F)F)ccn12 [1-10-002a, 2-[3-(ethylsulfonyl)-7-(trifluoromethyl)imidazo[1,2-a]pyridin-2-yl]-6-(trifluoromethyl)-2H-pyrazolo[4,3-b]pyridine]",mortality at 500 ppm,Plutella xylostella [1],≥ 90%
same,mortality at 10 µg/cm2,Ctenocephalides felis,≥ 50%
same,pest or weed control at 500 ppm,Plutella xylostella [2],≥ 90%
same,mortality at 500 ppm,Spodoptera litura,≥ 90%
same,mortality at 500 ppm,Myzus persicae,≥ 90%
"CCSc1c(-c2nc3cc(C(F)(F)F)cnc3n2C)nc2cc(C(F)(F)F)ccn12 [1-1-002b, 2-[3-(ethylthio)-7-(trifluoromethyl)imidazo[1,2-a]pyridin-2-yl]-3-methyl-6-(trifluoromethyl)-3H-imidazo[4,5-b]pyridine]",mortality at 500 ppm,Plutella xylostella [1],≥ 90%
same,mortality at 10 µg/cm2,Ctenocephalides felis,≥ 50%
same,mortality at 500 ppm,Spodoptera litura,≥ 90%
same,mortality at 500 ppm,Myzus persicae,≥ 90%
same,mortality at 500 ppm,[3],≥ 50%
"CCS(=O)(=O)c1c(-c2nc3cc(C(F)(F)F)cnc3n2C)nc2cc(C(F)(F)F)ncn12 [1-1-055a, 2-[3-(ethylsulfonyl)-7-(trifluoromethyl)imidazo[1,2-c]pyrimidin-2-yl]-3-methyl-6-(trifluoromethyl)-3H-imidazo[4,5-b]pyridine]",mortality at 500 ppm,Plutella xylostella [1],≥ 90%
same,mortality at 10 µg/cm2,Ctenocephalides felis,≥ 50%
same,mortality at 10 µg/cm2,Rhipicephalus sanguineus,≥ 50%
"CCS(=O)(=O)c1c(-c2cn3c(C)nc(C(F)(F)C(F)(F)F)cc3n2)nc2ccc(C(F)(F)F)cn12 [1-3-007a, 2-[3-(ethylsulfonyl)-6-(trifluoromethyl)imidazo[1,2-a]pyridin-2-yl]-5-methyl-7-(perfluoroethyl)imidazo[1,2-c]pyrimidine]",mortality at 20 ppm,Nilaparvata lugens [4],≥ 90%
same,mortality at 500 ppm,Plutella xylostella [1],≥ 90%
same,mortality at 500 ppm,Nilaparvata lugens [5],≥ 90%
same,mortality at 10 µg/cm2,Ctenocephalides felis,≥ 50%
same,mortality at 500 ppm,Spodoptera litura,≥ 90%
same,mortality at 500 ppm,Myzus persicae,≥ 90%
"CCS(=O)(=O)c1c(-c2nc3cc(C(F)(F)F)cnc3n2C)nc2sc(C(F)(F)F)nn12 [2-1-002a, 5-(ethylsulfonyl)-6-[3-methyl-6-(trifluoromethyl)-3H-imidazo[4,5-b]pyridin-2-yl]-2-(trifluoromethyl)imidazo[2,1-b][1,3,4]thiadiazole]",mortality at 20 ppm,Nilaparvata lugens [4],≥ 90%
same,mortality at 500 ppm,Plutella xylostella [1],≥ 90%
same,pest or weed control at 500 ppm,Plutella xylostella [2],≥ 90%
same,mortality at 500 ppm,Myzus persicae,≥ 90%
same,mortality at 500 ppm,[3],≥ 50%
"CCSc1c(-c2nc3cc(C(F)(F)F)cnc3n2C)nc2cc(C(F)(F)F)ncn12 [1-1-055b, 2-[3-(ethylthio)-7-(trifluoromethyl)imidazo[1,2-c]pyrimidin-2-yl]-3-methyl-6-(trifluoromethyl)-3H-imidazo[4,5-b]pyridine]",mortality at 500 ppm,[3],≥ 50%
"CCS(=O)(=O)c1c(-c2nc3cc(C(F)(F)F)nc(C)c3n2C)nc2ccc(C(F)(F)F)cn12 [1-8-003a, 2-[3-(ethylsulfonyl)-6-(trifluoromethyl)imidazo[1,2-a]pyridin-2-yl]-3,4-dimethyl-6-(trifluoromethyl)-3H-imidazo[4,5-c]pyridine]",mortality at 10 µg/cm2,Ctenocephalides felis,≥ 50%
same,pest or weed control at 500 ppm,Plutella xylostella [2],≥ 90%
same,mortality at 500 ppm,Spodoptera litura,≥ 90%
